{"source": "patent US9643916B2", "about": "“Low molecular weight cationic lipids for oligonucleotide delivery” (SIRNA THERAPEUTICS, INC., priority 2010, dated 2017)", "key": {"[1]": {"tested_on": "mRNA transcript for the firefly (Photinus pyralis) luciferase gene", "test": "Mouse in vivo evaluation of efficacy (luciferase mouse model, liver luminescence by IVIS imaging)", "settings": "LSL-Luc transgenic mice, Luc siRNA RDVs tail vein injected, 0.3 to 3 mg/kg siRNA, imaged 48 hours post dose; compared with RDV containing octyl-CLinDMA (OCD); FIG. 1", "protocol": "LNPs utilizing Compounds 1-2, in the nominal compositions described immediately above, were evaluated for in vivo efficacy and induction of inflammatory cytokines in a luciferase mouse model. The siRNA targets the mRNA transcript for the firefly (Photinus pyralis) luciferase gene (Accession #M15077). […] The in vivo luciferase model employs a transgenic mouse in which the firefly luciferase coding sequence is present in all cells. ROSA26-LoxP-Stop-LoxP-Luc (LSL-Luc) transgenic mice licensed from the Dana Farber Cancer Institute are induced to express the Luciferase gene by first removing the LSL sequence with a recombinant Ad-Cre virus (Vector Biolabs). Due to the organo-tropic nature of the virus, expression is limited to the liver when delivered via tail vein injection. Luciferase expression levels in liver are quantitated by measuring light output, using an IVIS imager (Xenogen) following administration of the luciferin substrate (Caliper Life Sciences). Pre-dose luminescence levels are measured prior to administration of the RDVs. Luciferin in PBS (15 mg/mL) is intraperitoneally (IP) injected in a volume of 150 μL. […] In vivo efficacy results are expressed as % inhibition of luminescence relative to pre-dose luminescence levels. Plasma cytokine levels were determined using the SearchLight multiplexed cytokine chemiluminescent array (Pierce/Thermo). […]"}, "[2]": {"tested_on": "mRNA transcript for the ApoB gene", "test": "Rat in vivo evaluation of efficacy (liver ApoB mRNA by quantitative RT-PCR)", "settings": "Sprague-Dawley female rats, ApoB siRNA RDV tail vein injected, necropsy 24 hours after dosing; compared with RDV containing octyl-CLinDMA; FIG. 2", "protocol": "(§1) Six hours post dose, food is removed from the cages. Animal necropsy is performed 24 hours after LNP dosing. Rats are anesthetized under isoflurane for 5 minutes, then maintained under anesthesia by placing them in nose cones continuing the delivery of isoflurane until ex-sanguination is completed. Blood is collected from the vena cava using a 23 gauge butterfly venipuncture set and aliquoted to serum separator vacutainers for serum chemistry analysis. Punches of the excised caudate liver lobe are taken and placed in RNALater (Ambion) for mRNA analysis. Preserved liver tissue was homogenized and total RNA isolated using a Qiagen bead mill and the Qiagen miRNA-Easy RNA isolation kit following the manufacturer's instructions. Liver ApoB mRNA levels were determined by quantitative RT-PCR. Message was amplified from purified RNA utilizing a rat ApoB commercial probe set (Applied Biosystems Cat # RN01499054_m1). The PCR reaction was performed on an ABI 7500 instrument with a 96-well Fast Block. The ApoB mRNA level is normalized to the housekeeping PPIB (NM 011149) mRNA. PPIB mRNA levels were determined by RT-PCR using a commercial probe set (Applied Biosystems Cat. No. Mm00478295_m1). Results are expressed as a ratio of ApoB mRNA/PPIB mRNA. All mRNA data is expressed relative to the PBS control dose. […]"}, "[3]": {"test": "Rat in vivo toxicity (serum ALT and AST)", "settings": "Sprague-Dawley female rats, serum 24 hours after LNP dosing; compared with RDV containing octyl-CLinDMA; FIG. 3", "protocol": "as §1"}}, "data": [{"smiles": "CCCCC/C=C\\C/C=C\\CCCCCCCCOC[C@H](COCCCCCCCC)N(C)C", "note": "[Compound 1, S-N,N-dimethyl-1-[(9Z,12Z)-octadeca-9,12-dien-1-yloxy]-3-(octyloxy)propan-2-amine]", "values": [{"measurement": "In vivo efficacy, % inhibition of luminescence relative to pre-dose luminescence levels", "setting": "[1]", "value": "Greater efficacy"}, {"measurement": "In vivo efficacy, liver ApoB mRNA/PPIB mRNA relative to the PBS control dose", "setting": "[2]", "value": "Greater efficacy"}, {"measurement": "Elevations in LFTs (ALT/AST)", "setting": "[3]", "value": "lower elevations in LFTs (ALT/AST)"}]}]}
